Tests used:
[1] = target: rat TAAR1 (Rattus norvegicus (Rat), UniProt Q923Y9); test: Radioligand binding assay on rat TAAR1; conditions: for Ki: rat TAAR1, HEK-293 membranes, second value of the mouse/rat pair
Procedure: (§1) Construction of TAAR Expression Plasmids and Stably Transfected Cell Lines
(§2) For the construction of expression plasmids the coding sequences of human, rat and mouse TAAR 1 were amplified from genomic DNA essentially as described by Lindemann et al.. The Expand High Fidelity PCR System (Roche Diagnostics) was used with 1.5 mM Mg^2+ and purified PCR products were cloned into pCR2.1-TOPO cloning vector (Invitrogen) following the instructions of the manufacturer. PCR products were subcloned into the pIRESneo2 vector (BD Clontech, Palo Alto, Calif.), and expression vectors were sequence verified before introduction in cell lines.
(§3) HEK293 cells (ATCC #CRL-1573) were cultured essentially as described by Lindemann et al. (2005). For the generation of stably transfected cell lines HEK293 cells were transfected with the pIRESneo2 expression plasmids containing the TAAR coding sequences (described above) with Lipofectamine 2000 (Invitrogen) according to the instructions of the manufacturer, and 24 hrs post transfection the culture medium was supplemented with 1 mg/ml G418 (Sigma, Buchs, Switzerland). After a culture period of about 10 d clones were isolated, expanded and tested for responsiveness to trace amines (all compounds purchased from Sigma) with the cAMP Biotrak Enzyme immunoassay (EIA) System (Amersham) following the non-acetylation EIA procedure provided by the manufacturer.
Radioligand Binding Assay on Rat TAAR1
(§4) Membrane Preparation and Radioligand Binding.
HEK-293 cells stably expressing rat TAAR1 were maintained at 37° C. and 5% CO2 in DMEM high glucose medium, containing fetal calf serum (10%, heat inactivated for 30 min at 56° C.), penicillin/streptomycin (1%), and 375 μg/ml geneticin (Gibco). Cells were released from culture flasks using trypsin/EDTA, harvested, washed twice with ice-cold PBS (without Ca^2+ and Mg^2+), pelleted at 1,000 rpm for 5 min at 4° C., frozen and stored at −80° C. Frozen pellets were suspended in 20 ml HEPES-NaOH (20 mM, pH 7.4) containing 10 mM EDTA and homogenized with a Polytron (PT 6000, Kinematica) at 14,000 rpm for 20 s. The homogenate was centrifuged at 48,000×g for 30 min at 4° C. Subsequently, the supernatant was removed and discarded, and the pellet resuspended in 20 ml HEPES-NaOH (20 mM, pH 7.4) containing 0.1 mM EDTA using the Polytron (20 s at 14,000 rpm). This procedure was repeated and the final pellet resuspended in HEPES-NaOH containing 0.1 mM EDTA and homogenized using the Polytron. […] With each new membrane batch the dissociation constant (Kd) was determined via a saturation curve. […] After addition of 45 μl of Microscint 40 (PerkinElmer) the Unifilter-96 plate was sealed and after 1 hr the ratioactivity counted using a TopCount Microplate Scintillation Counter (Packard Instrument Company).

[2] = target: mouse TAAR1 (Mus musculus (Mouse), UniProt Q923Y8); test: Radioligand binding assay on mouse TAAR1; conditions: for Ki: mouse TAAR1, HEK-293 membranes, first value of the mouse/rat pair
mouse TAAR1, sequence (Q923Y8 whole entry): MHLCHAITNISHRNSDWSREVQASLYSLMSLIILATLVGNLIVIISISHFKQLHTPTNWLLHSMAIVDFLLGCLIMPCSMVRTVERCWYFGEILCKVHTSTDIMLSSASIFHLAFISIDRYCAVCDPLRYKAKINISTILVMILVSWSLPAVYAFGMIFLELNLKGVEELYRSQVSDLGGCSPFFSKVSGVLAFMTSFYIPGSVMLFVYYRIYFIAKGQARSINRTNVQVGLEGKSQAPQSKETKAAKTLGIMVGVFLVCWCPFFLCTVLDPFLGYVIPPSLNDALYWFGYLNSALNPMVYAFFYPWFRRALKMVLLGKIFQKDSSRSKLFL
Procedure: as §1, §2, §3
Radioligand Binding Assay on Mouse TAAR1
as §4
HEK-293 cells stably expressing mouse TAAR1 were maintained at 37° C. and 5% CO2 in DMEM high glucose medium, containing fetal calf serum (10%, heat inactivated for 30 min at 56° C.), penicillin/streptomycin (1%), and 375 μg/ml geneticin (Gibco). […] With each new membrane batch the dissociation constant (Kd) was determined via a saturation curve. […] After addition of 45 μl of Microscint 40 (PerkinElmer) the Unifilter-96 plate was sealed and after 1 hr the ratioactivity counted using a TopCount Microplate Scintillation Counter (Packard Instrument Company).

rat TAAR1, sequence (Q923Y9 whole entry): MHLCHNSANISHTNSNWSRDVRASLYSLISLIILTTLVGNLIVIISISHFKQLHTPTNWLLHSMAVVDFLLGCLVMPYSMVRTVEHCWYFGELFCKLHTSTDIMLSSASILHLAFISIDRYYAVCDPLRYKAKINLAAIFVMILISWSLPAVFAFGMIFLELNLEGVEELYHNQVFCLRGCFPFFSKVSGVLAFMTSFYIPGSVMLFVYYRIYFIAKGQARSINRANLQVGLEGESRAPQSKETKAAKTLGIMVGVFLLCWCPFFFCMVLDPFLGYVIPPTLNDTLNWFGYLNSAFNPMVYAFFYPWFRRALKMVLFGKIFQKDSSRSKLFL

Row | SMILES | Ki [1] [µM] | Ki [2] [µM] | Kd ([1]; rat TAAR1 membranes, saturation curve, read-out: dissociation constant (Kd) of the radioligand) [nM] | Kd ([2]; mouse TAAR1 membranes, saturation curve, read-out: dissociation constant (Kd) of the radioligand) [nM]
1 | CC1(c2ccc(NC(=O)c3ccc(Cl)cc3)cc2)CCN(Cc2ccccc2)C1 (racemic) [Example 40, (RS)—N-[4-(1-Benzyl-3-methyl-pyrrolidin-3-yl)-phenyl]-4-chloro-benzamide] | 0.522 | – | – | –
2 | O=C(Nc1cccc(OC2CCNC2)c1)c1ccc(Cl)cc1 (racemic) [Example 70, (RS)-4-Chloro-N-[3-(pyrrolidin-3-yloxy)-phenyl]-benzamide] | 0.0935 | 0.0097 | – | –
3 | CC(CC(F)(F)F)OC(=O)Nc1ccc(C2CCNC2)cc1 (racemic) [Example 131, (RS)-(4-Pyrrolidin-3-yl-phenyl)-carbamic acid (RS)-3,3,3-trifluoro-1-methyl-propyl ester] | 0.0219 | 0.0208 | – | –
4 | CCN(C[C@H]1COC(N)=N1)c1ccccc1 [^3[H]—(S)-4-[(ethyl-phenyl-amino)-methyl]-4,5-dihydro-oxazol-2-ylamine, reference compound] | – | – | ~2.3 | ~0.7

From patent US10501411B2, “Substituted benzamides” (Hoffmann-La Roche Inc., priority 2009, dated 2019)
